# Experimental data: patent publication US20030202967A1, “Development and use of human pancreatic cell lines” (priority 1995, published 2003)
# Key:
# TRM-1 cells = assay: Insulin production from TRM-1 cells (radioimmunoassay); format: cell-based, human
# Experimental: Levels of insulin and glucagon released into medium and the corresponding hormone content of acid ethanol extracts of sonicated cells were measured by radioimmunoassay (RIA) as described in Otonkoski, T., et al., J. Clin. Invest., 92:1459-1466 (1993).
# Cells grown in this way were treated with nicotinamide for varying periods of time and assayed for insulin production using an extremely sensitive radioimmunoassay {Beattie, G., et al., J. Clin. Endocr. Metab., 78:1232-40 (1994)}.
# [1] = system: epithelial cells in the human fetal pancreas (HFP); assay: Mitogenic effect on human fetal pancreas epithelial cells; format: cell-based
# Experimental: Sci., 05:753-64 (1993)}. Thus, in this example, the epithelial cells were initially grown in the extracellular matrix from 804G cells and HGF/SF in DMEM, supplemented with 10% fetal bovine serum, at 37° C. and 10% CO2. In this growth condition, the epithelial cells formed an islet-like cell cluster (ICC)-derived monolayer cultures having a doubling time of 48 hours. With such high percentage of mitotically active cells, the use of retroviral vectors which require mitotically active cells for successful integration of viral DNA become attractive. After retroviral infection, the epithelial cells were grown in DMEM, supplemented with 10% fetal bovine serum, at 37° C. and 10% CO2, without the extracellular matrix from 804G cells and HGF/SF. The use of HGF/SF offers an added advantage of selecting for epithelial over stromal cells. Stromal cells produce the growth factor HGF. […] Thus, HGF/SF treatment results in selective growth of the epithelial cells but also increases the mitotic index of the epithelial cells. The following method used the HGF/SF method.
# [2] = system: CAT activity in LNSVoCL-infected 208F clones; format: cell-based, rat; conditions: some LNSVoCL-infected 208F clones also infected with pLISVHygL
# Experimental: The ability of LNSVoCL and LoCRNLo to mediate inducible CAT expression was tested in rat 208F cells. The cells were infected by one of the two CAT-expressing vectors followed by the lac repressor-expressing vector pLISVHygL. Infected cells were selected in media containing G418 and hygromycin. CAT activity in LNSVoCL-infected 208F clones was determined in the presence or absence of IPTG.
molecule,measurement,setting,value
Cn1c(=O)c2[nH]cnc2n(C)c1=O [theophylline],Stimulation of insulin production by treatment,TRM-1 cells; TRM-1 cells,not stimulated
"HGF/SF: growth factor/scatter factor, ligand of the met receptor",Mitogenic effect,[1],strongly mitogenic
"NC(=O)c1cccnc1 [Nic., nicotinamide]",Insulin production Day 0,"TRM-1 cells; TRM-1 suspension culture +10 mM Nic., Day 0",0 μU insulin/48 hr/ml medium
same,Insulin production Day 5,"TRM-1 cells; TRM-1 suspension culture +10 mM Nic., Day 5",0 μU insulin/48 hr/ml medium
same,Insulin production Day 7,"TRM-1 cells; TRM-1 suspension culture +10 mM Nic., Day 7",0 μU insulin/48 hr/ml medium
same,Insulin production Day 11,"TRM-1 cells; TRM-1 suspension culture +10 mM Nic., Day 11",2.8 μU insulin/48 hr/ml medium
same,Insulin production Day 13,"TRM-1 cells; TRM-1 suspension culture +10 mM Nic., Day 13",4.0 μU insulin/48 hr/ml medium
same,Insulin production Day 17,"TRM-1 cells; TRM-1 suspension culture +10 mM Nic., Day 17",5.6 μU insulin/48 hr/ml medium
same,Insulin expression in suspension cultures,"TRM-1 cells; TRM-1 suspension cultures, after 11 days of exposure",small amounts of insulin
"CC(C)SC1O[C@H](CO)[C@H](O)[C@H](O)[C@H]1O (stereo partly shown) [IPTG, isopropyl thiogalactopyranoside]",Increase in CAT activity in the presence of IPTG over its absence,[2],80-100 fold
